Measurements from patent publication US7534871B2, “Preparation and use of carbohydrate-based bicyclic ring structures with antimicrobial and cytostatic activity” (Kemin Pharma B.V.B.A., priority 2004, dated 2009).
Values after ≈ are worked out from the molar mass of the structure shown.

Experiments:
HSV-1 (KOS) = assay: Anti-viral activity: HSV-1-induced cytopathicity in human embryo fibroblast E6SM cell cultures; assay type: cell-based, herpes simplex virus (HSV); settings: Human alphaherpesvirus 1, 50%
VZV OKA = assay: microbe, parasite or virus in culture; assay type: cell-based, varicella zoster virus (VZV); settings: Human alphaherpesvirus 3, HEL, read-out: EC50 VZV (HEL) OKA
CMV Davis strain = assay: Anti-CMV activity: plaque reduction in HEL cells, Davis strain; assay type: cell-based, human cytomegalovirus (CMV); settings: Human betaherpesvirus 5, HEL; Table 6; reduce virus plaque formation by 50%; virus input 100 PFU; read-out: Anti-CMV activity IC50 Davis strain
HEL cells = assay: Cytotoxicity: alteration of cell morphology (MCC); assay type: cell-based, human; settings: minimum cytotoxic concentration that causes a microscopically detectable alteration of cell morphology
[1] = tested on: murine leukemia cells (L1210/0); assay: Cytostatic activity: inhibition of proliferation of L1210/0 cells; assay type: cell-based; settings: Mus musculus, L1210/0; 50% inhibitory concentration, cell proliferation; read-out: IC50 L1210/0
Description: (§1) The compounds were tested for anti-tumor activity via the inhibitory effects on the proliferation of murine leukemia cells (L1210/0), murine mammary carcinoma cells (FM3A), human T-lymphocyte cells (Molt4/C8, CEM/0) and human cervix carcinoma cells (HeLa).

[2] = tested on: human T-lymphocyte cells (CEM/0); assay: Cytostatic activity: inhibition of proliferation of CEM/0 cells; assay type: cell-based; settings: CCRF-CEM, 50% inhibitory concentration, cell proliferation, read-out: IC50 CEM/0
Description: as §1

VZV YS = assay: Anti-viral activity: VZV-induced plaque formation in HEL cell cultures, YS strain; assay type: cell-based, varicella zoster virus (VZV); settings: Human alphaherpesvirus 3, VZV-induced plaque formation in human embryonic lung HEL cell cultures, 50%
CMV AD-169 strain = assay: Anti-CMV activity: plaque reduction in HEL cells, AD-169 strain; assay type: cell-based, human cytomegalovirus (CMV); settings: Human betaherpesvirus 5, AD169, HEL; Table 6; reduce virus plaque formation by 50%; virus input 100 PFU; read-out: Anti-CMV activity IC50 AD-169 strain
[3] = Cytotoxicity: inhibition of HEL cell growth (CC50); assay type: cell-based; settings: human; concentration required to reduce cell growth by 50%; HEL cells, three days
Description: The medium was then replaced by MEM containing various concentrations of the test compound. After three days incubation at 37° C., when the cell monolayer was 70% confluent, the cell number was determined with the Coulter counter. The minimum cytotoxic concentration was defined as the concentration required to reduce cell growth by 50%.

[4] = tested on: murine mammary carcinoma cells (FM3A); assay: Cytostatic activity: inhibition of proliferation of FM3A cells; assay type: cell-based; settings: Mus musculus, 50% inhibitory concentration, cell proliferation, read-out: IC50 FM3A/0
Description: as §1

HSV-2 (G) = assay: Anti-viral activity: HSV-2-induced cytopathicity in human embryo fibroblast E6SM cell cultures; assay type: cell-based, herpes simplex virus (HSV); settings: Human alphaherpesvirus 2, 50%
VV = assay: microbe, parasite or virus in culture; assay type: cell-based; settings: Orthopoxvirus vaccinia, E6SM, read-out: EC50 VV (E6SM)
[5] = tested on: human T-lymphocyte cells (Molt4/C8); assay: Cytostatic activity: inhibition of proliferation of Molt4/C8 cells; assay type: cell-based; settings: Molt4/C8, 50% inhibitory concentration, cell proliferation, read-out: IC50 Molt4/C8
Description: as §1

[6] = tested on: human cervix carcinoma cells (HeLa); assay: Cytostatic activity: inhibition of proliferation of HeLa cells; assay type: cell-based; settings: 50% inhibitory concentration, cell proliferation
Description: as §1

Row | SMILES | EC50 (HSV-1 (KOS)) | EC50 (VZV OKA) | IC50 (CMV Davis strain) | Cytotoxicity Cell morphology (MCC) (HEL cells) | IC50 [1] | IC50 [2] | EC50 (VZV YS) | IC50 (CMV AD-169 strain) | CC50 at 3 days [3] | IC50 [4] | EC50 (HSV-2 (G)) | EC50 (VV) | IC50 [5] | IC50 [6]
1 | CO[C@@H]1[C@@H](OC)[C@H](Sc2ccccc2)O[C@@H]2CO[C@@H](c3ccccc3)O[C@@H]12 [KPE00001045] | > 3.2 µg/mL | > 2 µg/mL | > 5 µg/mL | 20 μg/ml | > 200 µg/mL | > 200 µg/mL | > 2 µg/mL | > 5 µg/mL | 50 µg/mL (≈ 129 µM) | > 200 µg/mL | > 3.2 µg/mL | > 3.2 µg/mL | > 200 µg/mL | 
2 | CCO[C@@H]1[C@@H](OCC)[C@H](Sc2ccccc2)O[C@@H]2CO[C@@H](c3ccccc3)O[C@@H]12 [KPE00001050] | > 3.2 µg/mL | > 5 µg/mL | > 50 µg/mL | >50 μg/ml | > 200 µg/mL | > 200 µg/mL | > 5 µg/mL | > 50 µg/mL | > 50 µg/mL | > 200 µg/mL | > 3.2 µg/mL | > 3.2 µg/mL | > 200 µg/mL | > 200 µg/mL
3 | O[C@@H]1[C@@H](O)[C@H](Sc2ccccc2)O[C@@H]2CO[C@@H](c3ccccc3)O[C@@H]12 [KPE00001048] | > 80 µg/mL | > 50 µg/mL | 35 µg/mL (≈ 97.1 µM) | >50 μg/ml | 103 ± 10 µg/mL (≈ 286 µM) | 75 ± 31 µg/mL (≈ 208 µM) | > 50 µg/mL | 33 µg/mL (≈ 91.6 µM) | > 50 µg/mL | 171 ± 41 µg/mL (≈ 474 µM) | > 80 µg/mL | > 80 µg/mL | 78 ± 12 µg/mL (≈ 216 µM) | 
